Data reported in article PMC10355216, “The C-terminal tail of CSNAP attenuates the CSN complex” (Life Science Alliance, 2023).

Columns and labels:
recombinant CSN complex = experiment: Peptide array screen of C-CSNAP peptides with recombinant CSN (rCSN^WT); type: binding; details: for Average fold change, intensities as fold of C-CSNAP (A1): rCSN^WT on INTAVIS Celluspots array, anti-CSN3 and HRP secondary antibody, average of six replicates (three independent experiments in duplicates); for Average fold change: peptide array with rCSN, average of 3 experiments, left and right (n = 6), fold of C-CSNAP (A1);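 as to all read-outs here: densitometric signal of CSN bound to each synthesized peptide spot, with an antibody-only array lacking CSN run to exclude non-specific binding, higher values meaning stronger binding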
CSN^ΔCSNAP complex = experiment: Peptide array screen of C-CSNAP peptides with rCSN^ΔCSNAP; type: binding; details: average of 5 experiments;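 also: Array-printed peptides incubated with 0.5 µM CSN^ΔCSNAP, bound complex detected by anti-CSN3 antibody plus HRP-linked secondary, spot intensity expressed relative to the parent reference peptide spot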
Protocol: Peptide array screen of modified C-CSNAP peptides. C-CSNAP peptide and its derivatives were printed on a microarray. The array was blocked and incubated with or without the CSN∆CSNAP complex and probed using an anti-CSN3 antibody and HRP-conjugated secondary antibody. To assess non-specific binding of the antibodies to the array, anti-CSN3 and anti-GAR-HRP were used without the addition of the COP9 signalosome complex (CSN). Signal intensity of each spot was measured and normalized to the intensity of the spot of C-CSNAP (A1). Measured values for each spot were averaged from six arrays and plotted with standard errors SEM.
Intensity values are normalized to the intensity of the 16AA C-CSNAP peptide (A1) on each array from three independent experiments in duplicates, and averages from the six replicates are calculated with SEM.
Optimization of C-CSNAP sequence for enhanced binding to recombinant CSN^ΔCSNAP was screened by printing the modified sequences of CSNAP or C-CSNAP (Phe to Trp, Asp to Glu, Ala screen, D-amino acid screen, N-α-methylation, and Aib incorporation on INTAVIS Celluspots array [2 × 384spots]). The array was blocked with 5% skim milk in TBS-0.5% Tween 20 (TBS-T) for 4 h at room temperature, washed three times in TBS-T, and then incubated with 0.5 μM CSN^ΔCSNAP in 5% milk–TBS-T. Bound CSN^ΔCSNAP was visualized by incubating with anti-CSN3 (ab79698) antibody (1:10,000, overnight) and goat-anti-rabbit-HRP secondary antibody (1:10,000, 1 h).

[1] = peptide array, rCSN^ΔCSNAP, left and right spots
[2] = peptide array with rCSN^ΔCSNAP, left and right (n = 10), fold of C-CSNAP (A1)

Substance	Average fold change, intensities as fold of C-CSNAP (A1) (recombinant CSN complex)	Average fold change (CSN^ΔCSNAP complex; [1])	further results
DWFNDWEDLFDDDDIQ [Position C17, C-CSNAP, Phe to Trp substitution F43,47W]	0.7959 fold of C-CSNAP (A1)	1.5247 fold of C-CSNAP (A1)	
GLLMDLAANEKAVHADFFNDFEDLFDDDDIQ [Position A16, CSNAP residues 27-57]	1.0167 fold of C-CSNAP (A1)		Average fold change (CSN^ΔCSNAP complex; [2]): 1.2168 fold
DFFNEFEELFEDDDIQ [Position E13, C-CSNAP, Asp to Glu substitution D46,49,52E]	0.6592 fold of C-CSNAP (A1)	1.2426 fold of C-CSNAP (A1)	
LMDLAANEKAVHADFFNDFEDLFDDDDIQ [Position A14, CSNAP residues 29-57]	0.9262 fold of C-CSNAP (A1)		Average fold change (CSN^ΔCSNAP complex; [2]): 1.0726 fold
EFFNEFEELFEDEDIQ [D42,46,49,52,54E]		0.9563 fold of C-CSNAP (A1)	Average fold change (recombinant CSN complex): 0.5967 fold
EFFNEFEDLFEDDDIQ [E 5, C-CSNAP, Asp to Glu substitution D42,46,52E]	0.8794 fold of C-CSNAP (A1)	1.0465 fold of C-CSNAP (A1)	
EFFNEFEDLFDEDDIQ [E 6, C-CSNAP, Asp to Glu substitution D42,46,53E]	0.7001 fold of C-CSNAP (A1)	0.9657 fold of C-CSNAP (A1)	
AANEKAVHADFFNDFEDLFDDDDIQ [Position A10, CSNAP residues 33-57]	1.0826 fold of C-CSNAP (A1)		Average fold change (CSN^ΔCSNAP complex; [2]): 0.9871 fold
DFF-Aib-DFED-Aib-FDDDI-Aib-Q [Position H16, C-CSNAP with Aib incorporation (45,50,56)]	0.4930 fold of C-CSNAP (A1)		intensities as fold of C-CSNAP (A1), Experiment #1 left (recombinant CSN complex; rCSN^WT peptide array, replicate: Experiment #1, left array): 0.3868 fold of C-CSNAP (A1); intensities as fold of C-CSNAP (A1), Experiment #1 right (recombinant CSN complex; rCSN^WT peptide array, replicate: Experiment #1, right array): 0.3074 fold of C-CSNAP (A1); intensities as fold of C-CSNAP (A1), Experiment #2 left (recombinant CSN complex; rCSN^WT peptide array, replicate: Experiment #2, left array): 0.3253 fold of C-CSNAP (A1); intensities as fold of C-CSNAP (A1), Experiment #2 right (recombinant CSN complex; rCSN^WT peptide array, replicate: Experiment #2, right array): 0.4113 fold of C-CSNAP (A1); intensities as fold of C-CSNAP (A1), Experiment #3 left (recombinant CSN complex; rCSN^WT peptide array, replicate: Experiment #3, left array): 0.4290 fold of C-CSNAP (A1); intensities as fold of C-CSNAP (A1), Experiment #3 right (recombinant CSN complex; rCSN^WT peptide array, replicate: Experiment #3, right array): 1.0982 fold of C-CSNAP (A1); Average fold change, intensities as fold of C-CSNAP (A1) (CSN^ΔCSNAP complex; [1]): 0.8483 fold
EFFNEFEELFEEDDIQ [D42,46,49,52,53E]		1.2332 fold of C-CSNAP (A1)	Average fold change (recombinant CSN complex): 0.6954 fold
DFFNDFEELFEDEDIQ [Position E18, C-CSNAP, Asp to Glu substitution D49,52,54E]	0.6310 fold of C-CSNAP (A1)	0.9681 fold of C-CSNAP (A1)	
EAGGSTGLLMDLAANEKAVHADFFNDFEDLFDDDDIQ [Position A22, CSNAP residues 21-57]	1.1428 fold of C-CSNAP (A1)		Average fold change (CSN^ΔCSNAP complex; [2]): 1.3163 fold
STGLLMDLAANEKAVHADFFNDFEDLFDDDDIQ [Position A18, CSNAP residues 25-57]	0.9600 fold of C-CSNAP (A1)		Average fold change (CSN^ΔCSNAP complex; [2]): 1.3562 fold
ADFFNDFEDLFDDDDIQ [A 2, CSNAP residues 41-57]	0.9705 fold of C-CSNAP (A1)		Average fold change (CSN^ΔCSNAP complex; [2]): 0.9058 fold
EFFNEFEELFDDDEIQ [D42,46,49,55E]		0.8257 fold of C-CSNAP (A1)	Average fold change (recombinant CSN complex): 0.5938 fold
DFFNDFEDLFEEEEIQ [D52,53,54,55E]		1.3020 fold of C-CSNAP (A1)	Average fold change (recombinant CSN complex): 0.7255 fold
DFFNEFEELFEDEDIQ [D46,49,52,54E]		0.9254 fold of C-CSNAP (A1)	Average fold change (recombinant CSN complex): 0.5934 fold
DFFNEFEELFDDEDIQ [Position E15, C-CSNAP, Asp to Glu substitution D46,49,54E]	0.5680 fold of C-CSNAP (A1)	0.8747 fold of C-CSNAP (A1)	
DFFNDFEELFEEDDIQ [Position E17, C-CSNAP, Asp to Glu substitution D49,52,53E]	0.6206 fold of C-CSNAP (A1)	1.2373 fold of C-CSNAP (A1)	
DFFNDFEDLFEDDEIQ [E 3, C-CSNAP, Asp to Glu substitution D52,55E]	0.8879 fold of C-CSNAP (A1)	0.8137 fold of C-CSNAP (A1)	
GPYVDLDEAGGSTGLLMDLAANEKAVHADFFNDFEDLFDDDDIQ [B 5, CSNAP residues 14-57]	1.1075 fold of C-CSNAP (A1)		Average fold change (CSN^ΔCSNAP complex; [2]): 0.9816 fold

Substance	Average fold change, intensities as fold of C-CSNAP (A1) (recombinant CSN complex)	Average fold change (CSN^ΔCSNAP complex; [1])	further results
DWWNDWEDLWDDDDIQ [D 2, C-CSNAP, Phe to Trp substitution F43,44,47,51W]	0.6800 fold of C-CSNAP (A1)	0.9168 fold of C-CSNAP (A1)	
DFFNEFEELFDDDEIQ [Position E16, C-CSNAP, Asp to Glu substitution D46,49,55E]	0.6983 fold of C-CSNAP (A1)	0.9545 fold of C-CSNAP (A1)	
DFFNDFEDLWDDDDIQ [Position C15, C-CSNAP, Phe to Trp substitution F51W]	0.8159 fold of C-CSNAP (A1)	1.0302 fold of C-CSNAP (A1)	
EFFNDFEELFDEDDIQ [Position E10, C-CSNAP, Asp to Glu substitution D42,49,53E]	0.6945 fold of C-CSNAP (A1)	1.1579 fold of C-CSNAP (A1)	
EFFNEFEDLFDDEDIQ [E 7, C-CSNAP, Asp to Glu substitution D42,46,54E]	0.6639 fold of C-CSNAP (A1)	1.1480 fold of C-CSNAP (A1)	
DFFNEFEELFEEDEIQ [D46,49,52,53,55E]		1.1600 fold of C-CSNAP (A1)	Average fold change (recombinant CSN complex): 0.5677 fold
DFFNDFEDLFEEDEIQ [D52,53,55E]		1.3267 fold of C-CSNAP (A1)	Average fold change (recombinant CSN complex): 0.6917 fold
DFFNDFEELFEEEEIQ [D49,52,53,54,55E]		1.1796 fold of C-CSNAP (A1)	Average fold change (recombinant CSN complex): 0.6658 fold
DFWNDWEDLWDDDDIQ [Position C22, C-CSNAP, Phe to Trp substitution F44,47,51W]	0.6112 fold of C-CSNAP (A1)	1.2126 fold of C-CSNAP (A1)	
EFFNDFEDLFDEDDIQ [Position D13, C-CSNAP, Asp to Glu substitution D42,53E]	0.7560 fold of C-CSNAP (A1)	1.1346 fold of C-CSNAP (A1)	
DFFNEFEELFDEEEIQ [D46,49,53,54,55E]		1.4630 fold of C-CSNAP (A1)	Average fold change (recombinant CSN complex): 0.6202 fold
DFFNEFEELFEDDEIQ [D46,49,52,55E]		1.1176 fold of C-CSNAP (A1)	Average fold change (recombinant CSN complex): 0.6253 fold
DWFNDWEDLWDDDDIQ [Position C23, C-CSNAP, Phe to Trp substitution F43,47,51W]	0.4941 fold of C-CSNAP (A1)	0.6854 fold of C-CSNAP (A1)	
DFFNDFEDLFEDEDIQ [E 2, C-CSNAP, Asp to Glu substitution D52,54E]	0.8694 fold of C-CSNAP (A1)	0.9955 fold of C-CSNAP (A1)	
EFFNEFEELFDEEEIQ [D42,46,49,53,54,55E]		1.0322 fold of C-CSNAP (A1)	Average fold change (recombinant CSN complex): 0.3621 fold
DWFNDFEDLWDDDDIQ [Position C18, C-CSNAP, Phe to Trp substitution F43,51W]	0.5534 fold of C-CSNAP (A1)	1.2485 fold of C-CSNAP (A1)	
EFFNEFEELFDDEDIQ [D42,46,49,54E]		1.0465 fold of C-CSNAP (A1)	Average fold change (recombinant CSN complex): 0.5426 fold
DLDEAGGSTGLLMDLAANEKAVHADFFNDFEDLFDDDDIQ [B 1, CSNAP residues 18-57]	1.1704 fold of C-CSNAP (A1)		Average fold change (CSN^ΔCSNAP complex; [2]): 0.9126 fold
DFFNEFEDLFDEDDIQ [Position D18, C-CSNAP, Asp to Glu substitution D46,53E]	0.5559 fold of C-CSNAP (A1)	1.0532 fold of C-CSNAP (A1)	
DFFNDFEDLFEEEDIQ [D52,53,54E]		1.1046 fold of C-CSNAP (A1)	
